# Like-named read-outs stand apart in the source and are kept apart here.
# Key:
# isolated rat hearts [1] = experiment: Concentration-response of quinazoline compounds on left ventricle systolic pressure and heart rate of isolated rat hearts; details: for increase in systolic pressure: according to basal absolute values of systolic pressure; for bradycardia response: decrease in heart rate compared to basal values; for Final heart rate: final value after infusions of increased concentrations; for Emax in the fractional pressor response: fractional values; for Initial heart rate: initial value before infusions of increased concentrations; for maximum pressor response (LVP): isolated rat hearts, infused concentrations 30 pM-2 μM
# Text: Systolic pressure responses of the left ventricle were expressed as fractional values, while heart rate responses were expressed as absolute values. […] EC50: concentration of the drug that produces half of the maximum effect.
# [2] = test system: myocardium of isolated rat hearts; experiment: Adenosine dosage (HPLC) in the myocardium of isolated rat hearts
# Text: We conducted adenosine dosages in the myocardium of isolated rat hearts with compounds 4d (Example 7) and 4i (Example 17). Chromatograms obtained through HPLC experiments in rat myocardium extracts for dosage of tissue adenosine and AMP are presented in FIG. 6.
# cardiac adenosine kinase = target: T1, cardiac adenosine kinase (Rattus norvegicus, UniProt Q64640); experiment: HPLC adenosine kinase activity test with derivatized adenosine as substrate in myocardium extracts; format: biochemical; details: fluorescence detection
# T1 construct: used as a substrate in myocardium extracts; from tissue; host or cells: rat myocardium (heart) extract
# isolated rat hearts [3] = experiment: Concentration-response in isolated heart with heart rate held constant by electrical stimulator; details: heart rate held constant by electrical stimulator (FIG. 12)
# Text: In order to confirm our hypothesis that pressor response of compound 4i depends on bradycardia and not on a direct action of 4i in the inotropism of isolated rat hearts, we conducted experiments where heart rate was held constant during infusion of increased concentrations of 4i (Example 17), through the action of an electrical stimulator. In FIG. 12 we represent the concentration-response relationship to 4i (Example 17) in isolated heart submitted to electrical stimulus.
# isolated rat hearts [4] = experiment: Heart rate of isolated rat hearts perfused with HEPES buffer with 1 nM 4i with or without 8-PT
# Procedure: In FIG. 14, we present diagrams that represent heart rates of isolated rat hearts perfused with pure HEPES buffer (control), or HEPES buffer with 1 nM of 4i (Example 17), or HEPES buffer with 1 nM of 4i (Example 17) plus 1 μM of unspecific inhibitor of adenosine receptors, 8-PT (4i+8-PT). […] However, perfusion of hearts with 4i (Example 17) and 8-PT annulled bradycardia caused by 4i (Example 17), confirming our hypothesis that the quinazoline compound could be acting in a direct or indirect way on adenosine receptors. In Table 5, we present heart rate values (bpm) from individual experiments of isolated hearts perfused with pure HEPES buffer (control), HEPES buffer with 1 nM of 4i (Example 17), or HEPES buffer with 1 nM of 4i (Example 17) and […] of 8-PT (mean±S.E.M.).
# isolated hearts [5] = experiment: Isolated hearts perfused with propanolol, diltiazem or reduced calcium concentration; design: species or system rat; details: propanolol or diltiazem blocking, or decreased calcium in perfusion buffer
# Text: There was also a negative correlation between levels of ventricular pressure and heart rate in isolated hearts treated with increased doses of compound 4i (Example 17) in the presence of blockers like propanolol and diltiazem, and reduced concentrations of calcium in the perfusion buffer. In FIG. 11, we presented diagrams of the correlation between increase in systolic pressure and decrease in heart rate in isolated hearts submitted to injections (bolus) of 4i (Example 17) perfused with propanolol, diltiazem and with reduction of the calcium concentration in the perfusion buffer. Data are presented as mean±S.E.M.
# Results obtained with 4i (Example 17) and other quinazoline compounds point out that the main functional effect of these compounds on isolated rat hearts is bradycardia, and the pressor effect depends on bradycardia, and thus is a consequence of particularities of the preparation used (i.e., isolated heart) and not a direct effect. Because the bradycardia response was not altered by propanolol or diltiazem blocking, or even by decrease in calcium concentration in the perfusion buffer, our hypothesis is that this effect of quinazoline compounds depends on a direct effect of them on pacemaker cells, or even on an indirect effect through secretion of autocrine or paracrine compounds. […]
# isolated hearts [6] = experiment: Concentration-effect experiments with adenosine with and without 8-PT in isolated hearts; design: species or system rat; details: for EC50: Rattus norvegicus
# Procedure: In Table 3, we present values of Emax, EC50 (nM) and LogEC50 in the fractional pressor response to infusion of increased concentrations of adenosine in isolated hearts perfused with pure HEPES buffer, or with HEPES buffer with 8-PT (mean±S.E.M.).
# Both effects were altered by the action of the unspecific adenosine receptor inhibitor, 8-PT (1 μM), added to the perfusion buffer. According to results presented in FIG. 13, the increase in systolic pressure in response to infusion of increased concentrations of adenosine, both in control hearts as in those treated with the unspecific adenosine inhibitor, was almost the same. […] Concerning heart rate, the adenosine bradycardia effect was reduced when the inhibitor was present, showing a decrease of about 15% if compared to basal values of Table 4, where we present initial and final heart rate values (bpm) in the response to infusion of increased concentrations of adenosine in isolated hearts perfused with pure HEPES buffer and HEPES buffer with 8-PT (mean±S.E.M.).
# [7] = Rattus norvegicus, mean±S.E.M., given as negative log values, read-out: LogEC50 in the fractional pressor response (converted)
# [8] = Rattus norvegicus, mean±S.E.M., infusion of increased concentrations, read-out: EC50 in the fractional pressor response
# [9] = mean±S.E.M., infusion of increased concentrations, hydrochloride
# T1 sequence (Q64640 whole entry): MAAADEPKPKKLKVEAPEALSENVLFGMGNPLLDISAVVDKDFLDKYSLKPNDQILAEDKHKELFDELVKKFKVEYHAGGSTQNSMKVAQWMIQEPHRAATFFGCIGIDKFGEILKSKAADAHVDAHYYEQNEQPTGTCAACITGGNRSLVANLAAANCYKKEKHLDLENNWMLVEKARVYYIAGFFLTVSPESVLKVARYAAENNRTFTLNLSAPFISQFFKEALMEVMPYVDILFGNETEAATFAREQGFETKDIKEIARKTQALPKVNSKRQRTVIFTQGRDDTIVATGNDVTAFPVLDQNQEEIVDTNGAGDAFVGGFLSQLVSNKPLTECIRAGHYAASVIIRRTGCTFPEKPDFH
compound,measurement,setting,value
COc1cc2ncnc(Nc3ccc(I)cc3)c2cc1OC.Cl,melting point,,266 to 269 °C
COc1cc2ncnc(Nc3ccc(C)cc3)c2cc1OC.Cl,melting point,,227 to 229 °C
COc1cc2ncnc(Nc3cccc(C(C)=O)c3)c2cc1OC.Cl,melting point,,219 to 221 °C
COc1cc2ncnc(Nc3ccc(C(C)=O)cc3)c2cc1OC.Cl,melting point,,218 to 220 °C
"COc1cc2ncnc(Cl)c2cc1OC [3a, 4-chloro-6,7-dimethoxyquinazoline]",EC50,isolated rat hearts [1]; [7],0.631 nM
same,EC50,isolated rat hearts [1]; [8],0.6 ± 0.5 nM
same,increase in systolic pressure,isolated rat hearts [1],~30%
same,bradycardia response,isolated rat hearts [1],~29%
same,Final heart rate,isolated rat hearts [1]; mean±S.E.M.,173 ± 1 bpm
same,Emax in the fractional pressor response,"isolated rat hearts [1]; mean±S.E.M., infusion of increased concentrations",0.6±0.2
same,Initial heart rate,isolated rat hearts [1]; mean±S.E.M.,242 ± 5 bpm
"COc1cc2ncnc(Nc3cccc(Br)c3)c2cc1OC.Cl [4d, 6,7-Dimethoxy-4-(3′-bromoanilino)quinazoline hydrochloride]",EC50,isolated rat hearts [1]; [7],6.31 nM
same,EC50,isolated rat hearts [1]; [8],6 ± 1.2 nM
same,increase in systolic pressure,isolated rat hearts [1],~14%
same,bradycardia response,isolated rat hearts [1],~25%
same,Final heart rate,isolated rat hearts [1]; mean±S.E.M.,164 ± 3 bpm
same,Emax in the fractional pressor response,isolated rat hearts [1]; [9],0.3±0.1
same,Initial heart rate,isolated rat hearts [1]; mean±S.E.M.,219 ± 12 bpm
same,maximum pressor response (LVP),isolated rat hearts [1],8±4 mmHg
same,effect on amount of myocardial adenosine,[2]; chromatograms of rat myocardium extracts (FIG. 6),increased substantially
same,myocardial adenosine value,"[2]; hearts treated with compound, average, basal value 0.48",0.75 nmol/mg of protein
same,adenosine kinase inhibition,cardiac adenosine kinase,adenosine kinase inhibitors
"COc1cc2ncnc(Nc3cccc(N(C)C)c3)c2cc1OC.Cl [4i, 6,7-Dimethoxy-4-(3′-N′,N′-dimethylaminoanilino)quinazoline hydrochloride]",increase in systolic pressure,isolated rat hearts [1],approximately 35%
same,bradycardia response,isolated rat hearts [1],approximately 24%
same,Final heart rate,isolated rat hearts [1]; mean±S.E.M.,173 ± 8 bpm
same,Emax in the fractional pressor response,isolated rat hearts [1]; [9],0.9±0.2
same,Initial heart rate,isolated rat hearts [1]; mean±S.E.M.,228 ± 7 bpm
same,maximum pressor response (LVP),isolated rat hearts [1],27±3 mmHg
same,LogEC50 in the fractional pressor response,"isolated rat hearts [1]; mean±S.E.M., given as negative log values",−9.9 ± 0.3
same,EC50,"isolated rat hearts [1]; mean±S.E.M., infusion of increased concentrations, read-out: EC50 in the fractional pressor response",0.1 ± 0.03 nM
same,pressor response with heart rate controlled,isolated rat hearts [3],almost annulled
same,reduction of heart rate,"isolated rat hearts [4]; 1 nM 4i, compared to control hearts",approximately 17%
same,Heart Rate,"isolated rat hearts [4]; HEPES buffer with 1 nM 4i, control 233 ± 7",194 ± 7 bpm
same,adenosine kinase inhibition,cardiac adenosine kinase,adenosine kinase inhibitors
same,bradycardia response under blocking,isolated hearts [5],not altered
"Nc1ncnc2c1ncn2[C@@H]1O[C@H](CO)[C@@H](O)[C@H]1O [Adenosine, adenosine]",increase in ventricular pressure,isolated hearts [6]; 1 μM adenosine (maximum response),16±2 mmHg
same,decrease in heart rate,"isolated hearts [6]; 8-PT (1 μM) present, compared to basal values",about 15%
same,EC50,"isolated hearts [6]; HEPES buffer with 8-PT (1 μM), read-out: EC50 pressor response",30 ± 19 nM
same,EC50,"isolated hearts [6]; pure HEPES buffer, given as negative log values, read-out: LogEC50 in the fractional pressor response (converted)",6.31 nM
same,EC50,"isolated hearts [6]; pure HEPES buffer, mean±S.E.M., read-out: EC50 pressor response",7 ± 1.4 nM
same,EC50,"isolated hearts [6]; pure HEPES buffer, read-out: EC50 bradycardia response",1.8 ± 1.4 nM
same,reduction in heart rate,"isolated hearts [6]; compared to absolute basal values, 1 μM adenosine (maximum response)",approximately 19%
same,Final heart rate,"isolated hearts [6]; pure HEPES buffer, final value after increased concentrations",185 ± 2 bpm
same,Initial heart rate,"isolated hearts [6]; pure HEPES buffer, initial value",228 ± 2 bpm
same,Emax in the fractional pressor response,"isolated hearts [6]; pure HEPES buffer, mean±S.E.M.",0.93 ± 0.05

# Reference: patent US8513267B2, “4-anilinoquinazoline derivatives with adenosine-kinase inhibitor properties” (Universidade Estadual de Campinas-Unicamp, priority 2004, dated 2013)
